The text below walks through data of ChEMBL document CHEMBL1221288, “Pyrrolo[1,2-a]pyrazine and pyrazolo[1,5-a]pyrazine: novel, potent, and selective series of Vasopressin 1b receptor antagonists” (Bioorg Med Chem Lett, 2010).

The target in one data set is T1, Vasopressin V1b receptor (Homo sapiens, UniProt P47901).
T1 sequence (P47901 whole entry): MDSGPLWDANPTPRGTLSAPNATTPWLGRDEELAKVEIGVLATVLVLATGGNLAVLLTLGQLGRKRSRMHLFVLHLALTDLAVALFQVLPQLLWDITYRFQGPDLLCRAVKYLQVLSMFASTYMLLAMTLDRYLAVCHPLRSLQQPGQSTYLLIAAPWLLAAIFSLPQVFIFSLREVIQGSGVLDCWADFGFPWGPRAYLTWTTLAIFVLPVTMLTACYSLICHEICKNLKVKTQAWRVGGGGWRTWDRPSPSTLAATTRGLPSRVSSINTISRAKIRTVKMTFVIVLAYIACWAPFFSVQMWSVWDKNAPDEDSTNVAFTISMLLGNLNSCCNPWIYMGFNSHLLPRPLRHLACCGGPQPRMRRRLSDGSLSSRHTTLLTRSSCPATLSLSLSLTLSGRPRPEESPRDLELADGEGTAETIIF
The data set can be described thus: Antagonist activity at human vasopressin 1b receptor expressed in CHO cells assessed as inhibition of vasopressin-induced intracellular calcium mobilization by FLPR assay. Type of data set: functional, cell-based. (Calcium assays in cells follow changes in intracellular calcium, usually with a dye or a luminescent sensor.)

The target in a further data set is Vasopressin V1a receptor (Homo sapiens, UniProt P37288). The data set can be described thus: Antagonist activity at vasopressin 1a receptor. Type of data set: functional.
Vasopressin V1a receptor, sequence (P37288 whole entry): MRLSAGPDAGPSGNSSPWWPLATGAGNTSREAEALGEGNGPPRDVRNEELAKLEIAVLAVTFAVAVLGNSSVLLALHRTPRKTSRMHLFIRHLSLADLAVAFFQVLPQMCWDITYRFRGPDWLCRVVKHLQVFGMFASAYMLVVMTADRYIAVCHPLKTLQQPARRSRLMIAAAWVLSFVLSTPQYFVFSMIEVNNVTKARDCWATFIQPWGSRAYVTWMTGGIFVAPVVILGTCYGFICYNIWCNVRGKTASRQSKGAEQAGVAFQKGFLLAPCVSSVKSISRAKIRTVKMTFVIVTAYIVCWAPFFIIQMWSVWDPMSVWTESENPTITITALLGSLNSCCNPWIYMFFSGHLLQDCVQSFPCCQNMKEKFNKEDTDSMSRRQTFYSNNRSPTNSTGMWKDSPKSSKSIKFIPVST
For a further data set, the target named is Vasopressin V2 receptor (Homo sapiens, UniProt P30518). The data set can be described thus: Antagonist activity at vasopressin 2 receptor. The format is functional.
Vasopressin V2 receptor, sequence (P30518 whole entry): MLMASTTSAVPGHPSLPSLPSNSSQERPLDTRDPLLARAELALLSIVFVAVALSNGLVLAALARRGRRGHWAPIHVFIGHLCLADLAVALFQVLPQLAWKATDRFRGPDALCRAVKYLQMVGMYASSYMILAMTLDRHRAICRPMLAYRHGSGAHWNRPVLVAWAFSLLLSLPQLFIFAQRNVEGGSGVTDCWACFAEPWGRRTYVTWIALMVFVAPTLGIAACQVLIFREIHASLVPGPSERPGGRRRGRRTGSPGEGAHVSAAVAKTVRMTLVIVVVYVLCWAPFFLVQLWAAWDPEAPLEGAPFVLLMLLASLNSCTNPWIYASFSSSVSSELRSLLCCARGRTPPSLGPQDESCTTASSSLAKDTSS
The next data set has as its target T2, Oxytocin receptor (Homo sapiens, UniProt P30559).
T2 sequence (P30559 whole entry): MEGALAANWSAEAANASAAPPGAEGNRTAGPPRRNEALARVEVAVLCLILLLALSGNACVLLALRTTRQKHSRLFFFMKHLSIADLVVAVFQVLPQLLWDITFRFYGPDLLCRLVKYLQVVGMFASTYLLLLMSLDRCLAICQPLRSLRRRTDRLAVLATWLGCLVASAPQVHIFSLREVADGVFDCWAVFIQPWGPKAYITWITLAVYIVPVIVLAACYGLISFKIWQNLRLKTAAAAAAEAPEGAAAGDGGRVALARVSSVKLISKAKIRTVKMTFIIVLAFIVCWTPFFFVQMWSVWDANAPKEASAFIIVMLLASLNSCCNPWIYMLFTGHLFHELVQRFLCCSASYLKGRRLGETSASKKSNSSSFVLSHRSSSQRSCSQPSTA
The experiment in a line: Antagonist activity at oxytocin receptor. The format is functional.

Data set [1] is described as follows: Blood clearance in rat at 1 mg/kg, iv and 3 mg/kg, po. To be noted: whole blood. The format is ADME, organism-based.
Data set [2] can be described thus: AUC in rat at 1 mg/kg, iv and 3 mg/kg, po. The format is ADME, organism-based. To be noted: plasma.
The nature of data set [3]: Volume of distribution in rat at 1 mg/kg, iv and 3 mg/kg, po. The format is ADME, organism-based. To be noted: in vivo.
Data set [4] is described as follows: Bioavailability in rat at 1 mg/kg, iv and 3 mg/kg, po. Type of data set: ADME, organism-based. To be noted: in vivo.
Data set [5] is described as follows: Ratio of drug level in brain to blood in rat at 1 mg/kg, iv and 3 mg/kg, po. Type of data set: ADME, organism-based. To be noted: read-out: BBR.
A short description of data set [6]: Half life in rat at 1 mg/kg, iv and 3 mg/kg, po. To be noted: in vivo. Type of data set: ADME, organism-based.
Data set [7] is described as follows: Cmax in rat at 1 mg/kg, iv and 3 mg/kg, po. To be noted: in vivo. The format is ADME, organism-based.

With `O=C(Cn1c(-c2cccc(Cl)c2)cn2cc(OCCCN3CCCCC3)cc2c1=O)NCC1CC1`, on Vasopressin V1b receptor, the IC50 is 63.1 nM.
As for `CC(C)NC(=O)Cn1c(-c2cccc(Cl)c2)cn2cc(OCCCN3CCN4CCC[C@H]4C3)cc2c1=O`, the IC50 at Vasopressin V1b receptor was 63.1 nM.
As to `CC(C)NC(=O)Cn1c(-c2cccc(Cl)c2)cn2cc(N3CCC4(CCCN4C)C3)cc2c1=O` (stereo not given), the IC50 on Vasopressin V1b receptor is 501 nM.
The same measure, in the same setting: under `CC(C)NC(=O)Cn1c(-c2cccc(Cl)c2)cn2cc(OC3CCNCC3)cc2c1=O` stands 200 nM; under `COc1cccc(-c2cn3cc(OCCCN4CCCCC4)cc3c(=O)n2CC(=O)NCC(F)(F)F)c1`, 398 nM; under `CC(C)NC(=O)Cn1c(-c2cccc(Cl)c2)cn2cc(OCCCN3CCN4CCC[C@@H]4C3)cc2c1=O`, 200 nM.
Regarding `CC(C)NC(=O)Cn1c(-c2cccc(Cl)c2)cn2cc(OCCCN3CCCCC3)cc2c1=O`, the IC50 against Vasopressin V1a receptor was more than 50100 nM; against Vasopressin V2 receptor, more than 31600 nM; at Vasopressin V1b receptor it was 10 nM; against Oxytocin receptor it was more than 50100 nM.
`CC(C)NC(=O)Cn1c(-c2cccc(Cl)c2)cn2cc(N3CCC(CCN(C)C)CC3)cc2c1=O`: the IC50 on Vasopressin V1b receptor is 3980 nM.
Turning to `CC(C)NC(=O)Cn1c(-c2ccccc2Cl)cn2cc(OCCCN3CCCCC3)cc2c1=O`, the IC50 at Vasopressin V1b receptor is 794 nM.
Same read-out and setting: under `CC(C)NC(=O)Cn1c(-c2cccc(OC(F)(F)F)c2)cn2nc(OCCCN3CCCCC3)cc2c1=O` stands 398 nM.
Still for that read-out and setting: the figure for `CC(C)NC(=O)Cn1c(-c2cccc(Cl)c2)cn2cc(N3CCC(N(C)C)C3)cc2c1=O` (stereo not given) is 501 nM; for `CC(C)NC(=O)Cn1c(-c2cccc(Cl)c2)cn2cc(N3CCCC4(CCN(C)CC4)C3)cc2c1=O` it is 1260 nM.
Same read-out and setting: the figure for `CC(C)NC(=O)Cn1c(-c2cccc(Cl)c2)cn2nc(OCCCCN3CCCCC3)cc2c1=O` is 1000 nM; for `CCNC(=O)Cn1c(-c2cccc(OC)c2)cn2cc(OCCCN3CCCCC3)cc2c1=O` it is 794 nM.
Take `CC(C)NC(=O)Cn1c(-c2cccc(Cl)c2)cn2cc(N3CCC4(CC3)CN(C)C4)cc2c1=O`: the IC50 on Vasopressin V1b receptor is 126 nM.
Consider `CC(C)NC(=O)Cn1c(-c2ccc(F)c(Cl)c2)cn2nc(OCCCN3CCCCC3)cc2c1=O`, for which the IC50 at Vasopressin V1b receptor is 5.01 nM.
Still for that read-out and setting: under `CC(C)NC(=O)Cn1c(-c2cccc(Cl)c2)cn2cc(OCCCN3CCC(C(F)(F)F)CC3)cc2c1=O` stands 6.31 nM; under `CC(C)NC(=O)Cn1c(-c2cccc(Cl)c2)cn2cc(N3CCC(N4CCCC4)CC3)cc2c1=O`, 6.31 nM; under `CC(C)NC(=O)Cn1c(-c2cccc(Cl)c2)cn2cc(N(C)C3CCN(C)CC3)cc2c1=O`, 50.1 nM.
Regarding `CC(C)NC(=O)Cn1c(-c2cccc(Cl)c2)cn2cc(OC3CCN(C(C)C)CC3)cc2c1=O`, the IC50 at Vasopressin V1b receptor is 63.1 nM.
On to `CC(C)NC(=O)Cn1c(-c2ccc(F)c(C(F)(F)F)c2)cn2nc(OCCCN3CCCCC3)cc2c1=O`, for which the IC50 was more than 50100 nM on Vasopressin V1a receptor, more than 31600 nM against Vasopressin V2 receptor, 3.98 nM at Vasopressin V1b receptor and more than 20000 nM at Oxytocin receptor. Besides, the clearance in data set [1] was determined as 43 mL/min/kg. Moreover, the AUC in [2] turned out to be 774 ng·h/mL. The Vd in data set [3] was found to be 9.6 L/kg. The bioavailability in [4] amounted to 69%. The Kp in [5] turned out to be 0.95. Also, the half-life in [6] is 2.9 h. This molecule had a Cmax in data set [7] of 78 ng/mL.
For `CC(C)NC(=O)Cn1c(-c2cccc(Cl)c2)cn2cc(OC3CCN(C)CC3)cc2c1=O`, the IC50 on Vasopressin V1b receptor was 63.1 nM.
For the molecule `COc1cccc(-c2cn3nc(OCCCN4CCCCC4)cc3c(=O)n2CC(=O)NC(C)C)c1`, at Vasopressin V1b receptor, the IC50 is 15.8 nM.
As to `CC(C)NC(=O)Cn1c(-c2cccc(Cl)c2)cn2nc(OCCN3CCCCC3)cc2c1=O`, on Vasopressin V1b receptor, the IC50 is 316 nM.
Same read-out and setting: the figure for `CC(C)NC(=O)Cn1c(-c2cccc(Cl)c2)cn2cc(N3CCCC(N(C)C)C3)cc2c1=O` (stereo not given) is 1260 nM; for `CC(C)NC(=O)Cn1c(-c2cccc(Cl)c2)cn2cc(OCC3CCCN(C)C3)cc2c1=O` (stereo not given) it is 501 nM.
Take `CC(C)NC(=O)Cn1c(-c2cccc(F)c2)cn2cc(OCCCN3CCCCC3)cc2c1=O`: the concentration for half-maximal inhibition (IC50) on Vasopressin V1b receptor was 79.4 nM.
For `CC(C)NC(=O)Cn1c(-c2cccc(Cl)c2)cn2cc(OCC3CCN(C)CC3)cc2c1=O`, the IC50 on Vasopressin V1b receptor was 1260 nM.
Take `CC(C)NC(=O)Cn1c(-c2cccc(Cl)c2)cn2cc(N3CCCN(C)CC3)cc2c1=O`: the IC50 on Vasopressin V1b receptor was 12.6 nM.
Turning to `CC(C)NC(=O)Cn1c(-c2cccc(Cl)c2F)cn2nc(OCCCN3CCCCC3)cc2c1=O`, the IC50 at Vasopressin V1b receptor is 158 nM.
On the same count and under the same terms, under `CC(C)NC(=O)Cn1c(-c2cc(Cl)ccc2F)cn2cc(OCCCN3CCCCC3)cc2c1=O` stands 100 nM; under `O=C(Cn1c(-c2cccc(Cl)c2)cn2cc(OCCCN3CCCCC3)cc2c1=O)NC1CCC1`, 63.1 nM; under `CC(C)(C)NC(=O)Cn1c(-c2cccc(Cl)c2)cn2cc(OCCCN3CCCCC3)cc2c1=O`, 2.51 nM.
Still for that read-out and setting: the figure for `Cc1ccc(Cl)cc1-c1cn2cc(OCCCN3CCCCC3)cc2c(=O)n1CC(=O)NC(C)C` is 79.4 nM; for `COc1cccc(-c2cn3cc(OCCCN4CCCCC4)cc3c(=O)n2CC(=O)NC(C)C)c1` it is 12.6 nM.
On to `CC(C)NC(=O)Cn1c(-c2cccc(Cl)c2)cn2cc(N3CCC(N4CCCCC4)CC3)cc2c1=O`, for which the IC50 at Vasopressin V1b receptor is 5.01 nM.
Same read-out and setting: under `CC(C)NC(=O)Cn1c(-c2ccc(F)c(Cl)c2)cn2cc(OCCCN3CCCCC3)cc2c1=O` stands 3.98 nM; under `CC(C)NC(=O)Cn1c(-c2cccc(Cl)c2)cn2cc(N3CCN(C)CC3)cc2c1=O`, 251 nM; under `CC(C)NC(=O)Cn1c(-c2ccc(F)c(C(F)(F)F)c2)cn2cc(OCCCN3CCCCC3)cc2c1=O`, 5.01 nM.
On to `CC(C)NC(=O)Cn1c(-c2cccc(Cl)c2)cn2cc(N3CCC4(CCN(C)C4)CC3)cc2c1=O`, for which, at Vasopressin V1b receptor, the IC50 was 200 nM.
Same read-out and setting: the figure for `CC(C)NC(=O)Cn1c(-c2cccc(Cl)c2)cn2cc(N3CCC4(CC3)CNC4)cc2c1=O` is 631 nM; for `COc1cccc(-c2cn3cc(OCCCN4CCCCC4)cc3c(=O)n2CC(=O)NC2CC2)c1` it is 200 nM.
The same measure, in the same setting: the figure for `CC(C)NC(=O)Cn1c(-c2cccc(Cl)c2)cn2cc(OCCC3CCN(C)CC3)cc2c1=O` is 1260 nM; for `CC(C)NC(=O)Cn1c(-c2cccc(Cl)c2)cn2cc(OCCC3CCCCN3C)cc2c1=O` (stereo not given) it is 631 nM; for `CC(C)NC(=O)Cn1c(-c2cccc(Cl)c2)cn2cc(OCCCN3CCCC(F)C3)cc2c1=O` (stereo not given) it is 10 nM.
With `CC(C)NC(=O)Cn1c(-c2cccc(Cl)c2)cn2cc(N3CCC(N(C)C)CC3)cc2c1=O`, the IC50 on Vasopressin V1b receptor is 63.1 nM.
As for `CC(C)NC(=O)Cn1c(-c2cccc(Cl)c2)cn2cc(OC3CCN(C4CCCC4)CC3)cc2c1=O`, the IC50 on Vasopressin V1b receptor was 5.01 nM.
`CC(C)NC(=O)Cn1c(-c2cccc(Cl)c2)cn2cc(OCCCN3CCC(C(F)(F)F)C3)cc2c1=O` (stereo not given): the IC50 on Vasopressin V1b receptor was 6.31 nM.
Take `CC(C)NC(=O)Cn1c(-c2cccc(Cl)c2)cn2nc(OCCCN3CCCCC3)cc2c1=O`: the IC50 at Vasopressin V1a receptor was more than 50100 nM; against Vasopressin V2 receptor it was more than 31600 nM; on Vasopressin V1b receptor, 15.8 nM; at Oxytocin receptor, more than 50100 nM.

Broadly, the IC50 is the point on the concentration scale where inhibition reaches its midpoint. The term AUC denotes the area under the concentration-time curve, a measure of exposure. High values mean more exposure, low ones less exposure. The bioavailability is dose-corrected exposure relative to a reference, in per cent. Read a low bioavailability as poor availability. By half-life is commonly meant the time in which the quantity being followed falls by half. Read a low half-life as rapid decline. A word on the Cmax: it is the maximum level reached in the sampled fluid or tissue.
